In US10041044B2, “Age-associated clonal hematopoiesis accelerates cardio-metabolic disease development” (TRUSTEES OF BOSTON UNIVERSITY, priority 2016, dated 2018):

How the values were obtained:
[1] = tested on: heart failure by pressure overload (TAC) in mice; assay: Pressure overload (TAC) heart failure in BMT mice; assay type: in vivo
Excerpt: 22A. Scheme of the experimental study. Mice underwent partial (10%) bone marrow reconstitution with Tet2-deficient cells or WT cells following lethal irradiation. After 8 weeks of recovery, mice underwent permanent TAC surgery to produce pressure overload on the heart. 22B. […] 22C. […] 22D. […] LVPWTd=left ventricle posterior wall thickness at diastole, FS=fractional shortening. 22E.
(§1) Heart failure was induced in C57/B16 mice by pressure overload, achieved by transverse aortic constriction (TAC), or by chronic ischemia, induced by the permanent ligation of the left anterior descending (LAD) artery (FIGS. 19, 20). In both models, Tet2-deficient hematopoietic cells were used to partially reconstitute the bone marrow of lethally irradiated mice, leading to their clonal expansion. Alternatively, Tet2 was specifically ablated in myeloid cells using Cre recombinase expressed from the LysM promoter. In mice, undergoing LAD ligation, Tet2-deficiency led to worsened cardiac remodeling and function regardless of the means of Tet2 ablation. In mice undergoing TAC, Tet2-deficiency led to greater hypertrophy and systolic dysfunction regardless of the means of Tet2 ablation.

[2] = tested on: heart failure by chronic ischemia (LAD ligation) in mice; assay: Post-infarction remodeling after permanent LAD ligation in BMT mice; assay type: in vivo
Excerpt: 21A. Scheme of the experimental study. Mice underwent partial (10%) bone marrow reconstitution with Tet2-deficient cells or WT cells following lethal irradiation. After 8 weeks of recovery, mice underwent permanent LAD ligation. PBS or MCC-950 infusion by osmotic pump was initiated 1 week after LAD ligation for 4 weeks. 21B. […] 21C.
as §1

[3] = tested on: atherosclerotic plaque in Ldlr−/− BMT mice; assay: Aortic root plaque size in high fat/high cholesterol diet-fed competitive-BMT Ldlr−/− mice; assay type: in vivo; conditions: continuous infusion 5 mg/kg/day via subcutaneous osmotic pumps
Description: Aortic root plaque size in high fat/high cholesterol diet-fed 10% KO-BMT mice and 10% WT-BMT. […] Representative images of hematoxylin/eosin-stained sections are shown; plaques are delineated by discontinuous lines (scale bar: 100 μm). Statistical significance was evaluated by 2-way ANOVA with Tukey multiple comparison test (*p<0.05, […]).
Lethally irradiated Ldlr−/− recipients were transplanted with suspensions of BM cells containing 10% CD45.2+ Tet2−/− cells and 90% CD45.1+ Tet2+/+ cells (10% KO-BMT mice), or 10% CD45.2+ Tet2+/+ cells and 90% CD45.1+ Tet2+/+ cells (10% WT-BMT mice) (Fig. S1). BM cells were isolated from femurs and tibias of donor mice after euthanasia. Donor CD45.2+ cells were obtained from Tet2+/+ or −/− littermates; donor CD45.1+ cells were obtained from Pep Boy mice. Recipient Ldlr−/− mice were irradiated in a pie cage (Braintree Scientific) to limit mobility and ensure equal dose of irradiation and were exposed to two radiation doses of 550 rad three hours apart using an X-RAD 320 Biological Irradiator. After the second irradiation, each recipient mouse was injected with 10^7 BM cells i.v. Sterilized caging, food and water were provided during the first 14 days post-transplant and water was supplemented with antibiotics (Sulfatrim). […]
Mice were euthanized and aortas were removed after in situ perfusion with phosphate-buffered saline (PBS) injected through the left ventricle of the heart. […] All histological sections comprising the aortic root as determined by the location of the aortic valve leaflets were cut at a thickness of 6 μm. An operator who was blinded to genotype quantified plaque size in aortic root sections by computer-assisted morphometric analysis of microscopy images acquired on a KEYENCE BZ-9000 microscope. For each mouse, atherosclerosis plaque size in aortic root cross-sections was calculated as the average of 5 independent sections separated by ˜18 μm.

[4] = tested on: TNF expression; assay: qRT-PCR of TNF expression in LPS/IFNγ-treated peritoneal macrophages; assay type: cell-based, mouse; conditions: HDAC inhibition with TSA in macrophages
Excerpt: Although many details of its role in regulating chromatin architecture remain unknown, Tet2 has emerged as a multifaceted epigenetic regulator that is able to facilitate both transcription activation and repression depending on the molecular and cellular context. Given that Tet2 loss-of-function is associated with increased IL-1β gene expression, experiments were focused on potential mechanisms of Tet2-mediated transcriptional repression in macrophages.
(§2) Thioglycollate-elicited macrophages were obtained from the peritoneal cavity of mice 4 days after intraperitoneal injection of 1 ml of aged 4% Brewer's thioglycollate broth (BD Difco). Macrophages were allowed to adhere for 4 hours and cultured in RPMI medium supplemented with antibiotics and 10% FBS (PERFORMANCE PLUS FBS, Gibco). […] Cell cycle progression and apoptosis of cultured macrophages was evaluated by flow cytometry analysis of DNA content. […] For analysis of apoptosis induced by treatment with 7-ketocholesterol (Sigma), hypodiploid (SubG1) cells were quantified using with FLOWJO Software. Uptake of fluorescent dil-conjugated oxidized LDL (Alfa Aesar) was evaluated by flow cytometry analysis. […]
(§3) Total RNA from tissues and cultured cells was isolated using QIAZOL reagent and RNEASY kits (QIAGEN). […] Results were analyzed with the ΔΔCt method. […]

[5] = tested on: IL-1β expression; assay: qRT-PCR of IL-1β expression in LPS/IFNγ-treated peritoneal macrophages; assay type: cell-based, mouse; conditions: 8 hours 10 ng/mL LPS and 2 ng/ml IFNγ; 0.5 μM TSA
Description: (§4) 14A. qRT-PCR analysis of IL-1β expression in peritoneal macrophages isolated from Tet2−/− or +/+ mice (n=3 mice/genotype) and treated for 8 hours with 10 ng/mL LPS and 2 ng/ml IFNγ in the absence or presence of 0.5 μM Trichostatin A (TSA). 14B. ChIP analysis of H3 acetylation in the IL-1β promoter of macrophages isolated from Tet2−/− or +/+ mice (n=6/genotype) after 10 hours of LPS/IFNγ treatment. 14C. qRT-PCR analysis of IL-6 expression in peritoneal macrophages isolated from Tet2−/−/ mice or +/+ controls (n=3 mice/genotype) and treated for 8 hours with 10 ng/mL LPS and 2 ng/ml IFNγ in the absence or presence of 0.5 μM TSA. 14D. […]
as §2, with “Difco).” for “Difco). Macrophages were allowed to adhere for 4 hours and cultured in RPMI medium supplemented with antibiotics and 10% FBS (PERFORMANCE PLUS FBS, Gibco).”
as §3

[6] = tested on: IL-6 expression; assay: qRT-PCR of IL-6 expression in LPS/IFNγ-treated peritoneal macrophages; assay type: cell-based, mouse; conditions: 8 hours 10 ng/mL LPS and 2 ng/ml IFNγ; 0.5 μM TSA
Description: as §4
as §2, with “Difco).” for “Difco). Macrophages were allowed to adhere for 4 hours and cultured in RPMI medium supplemented with antibiotics and 10% FBS (PERFORMANCE PLUS FBS, Gibco).”
as §3

[7] = mice reconstituted with Tet2-knockout bone marrow, after pressure overload

`CC(C)(O)c1coc(S(=O)(=O)NC(=O)Nc2c3c(cc4c2CCC4)CCC3)c1` [MCC950] was tested. Which “development of heart failure” value ([1]; TAC model (FIG. 22)) did it give?
The value was “protected against the development of heart failure”.

What about the “difference in cardiac fibrosis between Tet2-deficient and WT conditions” value ([1]; after pressure overload) of the same molecule?
The value was “eliminates the difference in this parameter”.

And the “difference in myocyte CSA between Tet2-deficient and WT conditions” value ([1]; after pressure overload)?
Its value is “eliminates the difference in this parameters”.

And the “differences in HW and LW between Tet2-deficient and WT conditions” value ([1]; after pressure overload)?
The value was “eliminates the differences in these parameters”.

And the “differences in echocardiographic parameters between Tet2-deficient and WT conditions” value ([1]; after pressure overload)?
The value was “eliminates the differences in the echocardiographic parameters”.

And the “heart weight (HW) and wet lung weight (LW) adjusted by tibia length (TL)” value ([1]; after pressure overload, both strains of mice)?
Its value is “ameliorates the increase of cardiac and lung mass”.

What about the “myocyte cross-sectional area (CSA)” value ([1]; after pressure overload, wild type and hematopoietic Tet2-KO mice) of the same molecule?
The value was “inhibits hypertrophy”.

What about the “cardiac fibrosis (Picro sirius staining)” value [1, 7] of the same molecule?
Its value is “can be reversed”.

And the “deterioration of cardiac function (echocardiographic parameters, LVPWTd, FS)” value [1, 7]?
The value was “can be reversed”.

And the “differences in cardiac parameters between Tet2-deficient and WT conditions” value ([2]; 5 week time point post-LAD ligation)?
Its value is “eliminates the differences in cardiac parameters”.

What about the “development of heart failure” value ([2]; LAD ligation model (FIG. 21)) of the same molecule?
The value was “protected against the development of heart failure”.

What about the “cardiac remodeling, echocardiographic ejection fraction (EF)” value ([2]; Tet2-KO and wild-type bone marrow, osmotic pump infusion from 1 week after LAD ligation for 4 weeks) of the same molecule?
The value was “protects against adverse cardiac remodeling”.

What about the “differences in cell size between Tet2-deficient and WT conditions” value ([2]; after LAD ligation) of the same molecule?
Its value is “eliminates the differences in cell size”.

And the “cardiac myocyte hypertrophy after LAD ligation” value ([2]; mice reconstituted with Tet2-KO and wild-type bone marrow)?
The value was “inhibits the increase in cardiac myocyte hypertrophy”.

And the “decrease of atherosclerotic plaque size” value ([3]; 10% KO-BMT mice)?
The value was roughly 50%.

What about the “reduction of atherosclerotic plaque size” value ([3]; 10% WT-BMT controls, nonstatistically significant) of the same molecule?
Its value is 20%.

What about the “difference in aortic plaque size between chimeric (10% KO-BMT) and nonchimeric control mice” value [3] of the same molecule?
The value was “eliminated”.

`CC(/C=C/C(=O)NO)=C\[C@@H](C)C(=O)c1ccc(N(C)C)cc1` [Trichostatin A] was tested. Which TNF transcript expression [4] did it give?
The TNF transcript expression was “reduced transcript expression”.

What about the “IL-1β expression (qRT-PCR)” value [5] of the same molecule?
The value was “increased IL-1β expression”.

What about the “IL-1β expression differences between Tet2-deficient and WT genotypes” value [5] of the same molecule?
The value was “abolished expression differences”.

And the “IL-6 expression differences between genotypes” value [6]?
The value was “did not affect differences between genotypes”.

What about the “IL-6 transcript expression (qRT-PCR)” value [6] of the same molecule?
The value was “reduced transcript expression”.
